What is called IC50 is the point on the concentration scale where inhibition reaches its midpoint. A lower IC50 goes with greater potency in that assay. In general, Km refers to the concentration of substrate that gives half-maximal velocity.

In one data set the target is T1, rat RBC AChE (Rattus norvegicus, UniProt P37136).
T1 construct: the membrane fraction (containing AChE) was sedimented by centrifugation at 20,000g for 40 min; tissue BioIVT; host or cells: rat red blood cell membranes (from whole blood)
T1 sequence (P37136 other isoform, or with tags, fused parts or gaps): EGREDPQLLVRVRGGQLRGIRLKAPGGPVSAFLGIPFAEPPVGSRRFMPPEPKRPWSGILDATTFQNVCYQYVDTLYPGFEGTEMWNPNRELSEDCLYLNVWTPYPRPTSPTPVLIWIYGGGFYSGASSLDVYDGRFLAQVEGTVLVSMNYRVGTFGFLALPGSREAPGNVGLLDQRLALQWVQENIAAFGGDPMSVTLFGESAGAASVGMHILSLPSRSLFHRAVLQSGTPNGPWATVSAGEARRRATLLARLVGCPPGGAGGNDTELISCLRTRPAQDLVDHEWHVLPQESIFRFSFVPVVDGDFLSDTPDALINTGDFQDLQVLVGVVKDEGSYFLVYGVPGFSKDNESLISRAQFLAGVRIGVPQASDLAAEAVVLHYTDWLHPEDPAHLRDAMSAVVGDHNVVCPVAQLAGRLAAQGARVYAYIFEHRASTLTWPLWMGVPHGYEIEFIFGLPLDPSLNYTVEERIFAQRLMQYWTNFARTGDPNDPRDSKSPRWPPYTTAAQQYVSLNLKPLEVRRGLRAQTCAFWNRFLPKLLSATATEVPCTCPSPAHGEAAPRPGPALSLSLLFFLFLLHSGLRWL
In words: In vitro AChE inhibition assay (Ellman) with extracted rat RBC AChE. The format is biochemical. The procedure:
However, since recombinant rat AChE was not commercially available, extracted rat RBC AChE was used. […] The concentration of DTNB was calculated based on the concentration ratio (ATC/DTNB) of 2 (Stern et al. [2014]). […] To initiate the inhibition reaction, 1 µl rhAChE or rat AChE (final concentration 0.6 mU/ml) was added to the incubation. The total incubation volume was 50 µl. After 15 min incubation at 37℃, 150 µl reaction reagents (mixture of ATC at a final concentration of 150 µM and DTNB at a final concentration of 75 µM) were added into each well. The final total volume of each well was 200 µl. Subsequently, the 96-well plate was measured continuously for 10 min at absorbance 412 nm at 37℃ to quantify the remaining AChE activity.
The rhAChE and rat AChE activity were expressed as the remaining AChE activity relative to solvent control (100% activity) and positive control (0% activity) based on Eq. (2):2 AChEactivity\%=A412t10-t0testcompound-A412t10-t0positivecontrol/A412t10-t0solventcontrol-A412t10-t0positivecontrol×100\% , where the A412(t10 − t0)test compound is the change in the absorbance at A412 nm between 0 and 10 min for the test compound, the A412(t10 − t0)positive control is the change in the absorbance at A412 nm between 0 and 10 min for the CPO sample, and the A412(t10 − t0)solvent control is the change in the absorbance at A412nm between 0 and 10 min for the 0.2% ethanol sample.
(In Ellman's method for cholinesterases, released thiocholine reacts with DTNB.)

For the next data set, the system named is brain and RBC AChE. Particulars: cited from earlier work.
For data set [1] the following is noted: rat; ref JMPR 2016; cited from earlier work.
Data set [2] deals with CYP450. The experiment in a line: in vitro. The class given is in vitro ADME, rat. Particulars: for Km: rat. The procedure: (§1) The in vitro incubations for investigating CYP450-mediated biotransformation of DZN were performed using rat and human liver microsomes based on the method described by Sams et al. ([2004]) and Smith et al. ([2011]) with some modifications. Preliminary studies were carried out to optimize both incubation time and microsomal protein concentration, to define conditions at which metabolism was linear with respect to time and the amount of microsomal protein (data not shown) to be used for further kinetic studies. The final incubations contained 50 mM Tris–HCl (pH 7.4), 5 mM MgCl2, 1 mM EDTA (as an A-esterase PON1 inhibitor) (Bizoń and Milnerowicz [2018]), 50 µM iso-OMPA (as a B-esterases inhibitor) (Lane et al. [2006]), 1 mM NADPH, and DZN at final concentrations of 1, 2.5, 5, 10, 25, 50, 100 and 250 µM (added from 100 times concentrated stock solutions in methanol). […] Addition of esterase inhibitors EDTA and iso-OMPA has been commonly applied when studying CYP450-mediated conversion of organophosphate (OP) pesticides in liver microsomal incubations for determining kinetic parameters for their CYP450-mediated pathways (Buratti et al. [2005]; Dadson et al. [2013]; Ellison et al. [2012]; Foxenberg et al. [2007]; Poet et al. [2003]; Smith et al. [2011]). Based on previous studies, CYP450-mediated activities are not adversely affected by the addition of these inhibitors (1 mM EDTA and 50 µM iso-OMPA) to the microsomal incubations (Buratti et al. [2003]; Rasmussen [2012]). After 1 min preincubation in a 37 °C water bath, 2.5 µl of human or rat liver microsomes (final concentration 0.25 mg microsomal protein/ml) were added to initiate the reaction. The total incubation mixture was 200 µl. Control incubations were carried out by replacing NADPH with buffer. The reaction was terminated after 2.5 min by adding 200 µl ice-cold ACN. After the incubation, samples were centrifuged at 16000 g (4℃) for 5 min, and supernatants of rat samples were further diluted 2 × in a mixture of ACN and 50 mM Tris–HCl (pH 7.4) (ratio 1:1, v/v). At the end, both diluted rat sample supernatants and undiluted human sample supernatants were analysed by LC–MS/MS for quantification of metabolite formation.
The chromatographic separations were conducted on a Kinetex® 1.7 µm Phenyl-Hexyl 100 Å LC column (100 × 2.1 mm). The injection volume was 1 µl at a flow rate of 0.3 ml/min. The temperature of the column was kept at 40℃. The mobile phase A consisted of ultrapure water with 0.1% (v/v) formic acid, and mobile phase B consisted of acetonitrile (ACN) with 0.1% (v/v) formic acid. […] The instrument was used in positive mode with multiple reaction monitoring (MRM). The optimized acquisition parameters for DZN, DZO and the metabolite IMHP are listed in Supplementary data I.
The calculation was done using GraphPad Prism 5 for Windows, version 5.04 (GraphPad software, San Diego California USA).

Data set [3] concerns CYP450. The experiment in a line: in vitro. The format is in vitro ADME, human. The note with it: for Km: human. The procedure: as §1
The chromatographic separations were conducted on a Kinetex® 1.7 µm Phenyl-Hexyl 100 Å LC column (100 × 2.1 mm). The injection volume was 1 µl at a flow rate of 0.3 ml/min. The temperature of the column was kept at 40℃. The mobile phase A consisted of ultrapure water with 0.1% (v/v) formic acid, and mobile phase B consisted of acetonitrile (ACN) with 0.1% (v/v) formic acid. […] The instrument was used in positive mode with multiple reaction monitoring (MRM). The optimized acquisition parameters for DZN, DZO and the metabolite IMHP are listed in Supplementary data I. […]

Data set [4] has as its system CYP450. Particulars: ref Kappers et al. 2001; cited from earlier work.
Where [5] appears, read: rat versus human liver microsomes.

Like-named read-outs stand apart in the source and are kept apart here.

At rat RBC AChE (rat RBC AChE, 15 min incubation at 37℃), `CCOP(=S)(OCC)Oc1cc(C)nc(C(C)C)n1` [DZN, O,O-diethyl O-2-isopropyl-6-methylpyrimidin-4-yl phosphorothioate] came in with an IC50 of 14.7 µM. At rat RBC AChE (rat, IC50 DZO/IC50 DZN, TEF of DZO set at 1.0), the “toxic equivalency factor (TEF)” value was determined as 0.00351. Moreover, the “overall NOAEL from three rat studies” value in the data set with brain and RBC AChE (EFSA, ref EFSA 2006) was 2.5 mg/kg bw. Besides, in the data set with brain and RBC AChE (JMPR, ref JMPR 2016), the “LOAEL, inhibition of brain and RBC AChE activity in female rat” value is on record as 25 mg/kg bw; the “NOAEL, acute (neuro)toxicity study in rats” value is on record as 2.5 mg/kg bw. Further, in the data set on brain and RBC AChE (ref EFSA 2006, JMPR 2016), the “Reported NOAEL from EFSA and JMPR (adult rat)” value was 2.5 mg/kg bw. For the same compound, the “toxic dose level reported” value in data set [1] is listed as 300 mg/kg bw. In addition, in the data set on CYP450 [2] (rat liver microsomes), the “Vmax DZN to DZO” value was 0.288 nmol/min/mg microsomal protein and the “Vmax DZN to IMHP” value is on record as 1.098 nmol/min/mg microsomal protein. In the data set with CYP450 [2] (setting [5]), the “CYP450-mediated detoxification, more efficient in rat compared to human” value came to 15 fold; the “lower Km for CYP450-mediated bioactivation in rat than in human” value is given as 12.6 fold; the “lower Km for CYP450-mediated detoxification in rat than in human” value was determined as 9.3 fold; the “unscaled catalytic efficiency of CYP450-mediated bioactivation, higher in rat than human” value amounted to 20 fold. Moreover, the Km in the data set with CYP450 [2] (pH 7.4, Km DZN to DZO, rat liver microsomes) turned out to be 4.75 µM. The Michaelis-Menten constant (Km) in the data set with CYP450 [2] (pH 7.4, rat liver microsomes, read-out: Km DZN to IMHP) amounted to 1.76 µM. Also, in the data set on CYP450 [3] (human liver microsomes), the “Vmax DZN to DZO” value is on record as 0.187 nmol/min/mg microsomal protein and the “Vmax DZN to IMHP” value is 0.665 nmol/min/mg microsomal protein. In the data set on CYP450 [3] (pH 7.4, Km DZN to DZO, human liver microsomes), the Km came to 59.6 µM. Also, the Km in the data set on CYP450 [3] (pH 7.4, human liver microsomes, read-out: Km DZN to IMHP) was determined as 16.3 µM. Besides, in the data set with CYP450 [4], the “difference in DZO formation from DZN between 15 human liver samples” value is recorded as 6- to 59 fold.
